Test results: the NIST ThermoML archive (doi:10.1016/j.fluid.2007.07.059)

How the values were obtained:
[1] = Gas, Hot wire method
[2] = xn = mol fraction of the nth substance listed; settings: Gas, Hot wire method

CCC(C)C [2-methylbutane]
thermal conductivity [W/m/K], [1]
Settings | 342.97 K | 352.61 K | 375 K | 390.75 K
100 kPa | 0.01954 | 0.02064 | 0.02347 | 0.02574
200 kPa | 0.0196 | 0.02071 | 0.02356 | 0.0258
500 kPa | 0.01976 | 0.02093 | 0.02385 | 0.026

CCC(C)C [2-methylbutane] + CCCCC
thermal conductivity [W/m/K], [2]
Settings | 100 kPa | 200 kPa | 500 kPa
345.26 K, x1 = 0.6232 | 0.01956 | 0.01963 | 0.01984
345.54 K, x1 = 0.1695 | 0.01924 | 0.01936 | 0.01973
346.28 K, x1 = 0.3293 | 0.01932 | 0.01941 | 0.0197
361.52 K, x1 = 0.3293 | 0.02107 | 0.02119 | 0.02156
362.08 K, x1 = 0.1695 | 0.02122 | 0.02131 | 0.02155
362.43 K, x1 = 0.6232 | 0.02163 | 0.02169 | 0.02187
378.03 K, x1 = 0.6232 | 0.02381 | 0.02382 | 0.02387
378.23 K, x1 = 0.1695 | 0.02312 | 0.02327 | 0.02372
378.57 K, x1 = 0.3293 | 0.02344 | 0.02346 | 0.02351
394.05 K, x1 = 0.6232 | 0.02586 | 0.02591 | 0.02605
394.45 K, x1 = 0.1695 | 0.02554 | 0.02558 | 0.02571
395.51 K, x1 = 0.3293 | 0.02569 | 0.02572 | 0.02578

CCCCC [pentane]
thermal conductivity [W/m/K], [1]
Settings | 342.97 K | 366.02 K | 380.86 K | 407.37 K
100 kPa | 0.01889 | 0.02169 | 0.02371 | 0.02719
200 kPa | 0.01895 | 0.02176 | 0.02378 | 0.02728
500 kPa | 0.01915 | 0.02198 | 0.02398 | 0.02754
